The text below walks through data of patent US12643867B2, “Compositions and uses thereof” (University of Virginia Patent Foundation, priority 2017, dated 2026).

The target in test [1] is T1, PLK1 (Serine/threonine-protein kinase PLK1) (Homo sapiens, UniProt P53350).
T1 construct: Native kinases; endogenous in cells; host or cells: HEK293T soluble proteome
Description: SILAC LC-MS ATP acyl phosphate probe competition, native kinases in HEK293T. Type of test: binding. The following applies: site Lys1; ATP 1 mM; Ketanserin, Ritanserin 100 μM; RF001 1 mM. Here is the method: Proteomes were diluted to 2 mg/ml in kinase buffer. The light and heavy proteomes (0.5 mg, 250 μL total reaction volume) were pre-treated with vehicle or compound, respectively (5 μL, DMSO (light) or 50× stock in DMSO (heavy)), mixed gently, and incubated at 25° C. for 30 min. […] After incubation, matched light and heavy proteomes were transferred and mixed in a 1:1 ratio in a two-dram vial containing 4:1:3 MeOH/CHCl3/H2O (2 mL MeOH, 500 AL CHCl3, 1.5 mL H2O) for extraction of proteins to remove excess probe, quickly vortexed, and centrifuged at 1,400×g for 3 min to pellet protein. Organic and aqueous layers were removed using a Pasteur pipette, and the protein pellet was transferred to a screw-top tube in 600 μL MeOH. A second extraction was performed by adding CHCl3 (150 μL) and H2O (600 μL) to each sample, vortexed, and centrifuged at 1,400×g for 3 min to pellet protein. Organic and aqueous layers were removed by pipetting. MeOH added to pellet (600 μL) and pellets were re-suspended by sonication (3×1 sec pulse, 20% amplitude) for a final extraction. Samples were then centrifuged at 17,000×g for 5 min to pellet protein and MeOH was removed by pipetting. […] To desalt the samples, each was transferred to a two-dram glass vial, and to the vial 4:1:2 MeOH/CHCl3/H2O (2 mL MeOH, 500 AL CHCl3, 1 mL H2O) was added. The vials were vortexed quickly, spun at 1.400×g for 3 min to pellet protein, and aqueous and organic layers were removed using a Pasteur pipette. The resulting protein pellet was transferred to a screw-top tube in 600 μL MeOH, and then CHCl3 (150 μL) and HO (600 μL) were added to extract protein a second time. The samples were vortexed quickly, centrifuged at 1,400×g to pellet protein, and the aqueous and organic layers were removed by pipetting. Resulting protein pellet was suspended in MeOH (600 μL) via sonication (3×1 sec pulse, 20% amplitude), centrifuged at 17,000×g for 5 min to pellet protein, and MeOH removed by pipetting. […]

The target in test [2] is Alpha (DGK alpha; only in reference sheet cells) (Rattus norvegicus, UniProt P51556). Description: DGK isoform % Activity screen. Type of test: biochemical. To be noted: for activity at 100 µM: read-out: 100 uM % Activity (section without isoform head; Alpha).
Sequence of Alpha (DGK alpha; only in reference sheet cells) (P51556 whole entry, canonical isoform): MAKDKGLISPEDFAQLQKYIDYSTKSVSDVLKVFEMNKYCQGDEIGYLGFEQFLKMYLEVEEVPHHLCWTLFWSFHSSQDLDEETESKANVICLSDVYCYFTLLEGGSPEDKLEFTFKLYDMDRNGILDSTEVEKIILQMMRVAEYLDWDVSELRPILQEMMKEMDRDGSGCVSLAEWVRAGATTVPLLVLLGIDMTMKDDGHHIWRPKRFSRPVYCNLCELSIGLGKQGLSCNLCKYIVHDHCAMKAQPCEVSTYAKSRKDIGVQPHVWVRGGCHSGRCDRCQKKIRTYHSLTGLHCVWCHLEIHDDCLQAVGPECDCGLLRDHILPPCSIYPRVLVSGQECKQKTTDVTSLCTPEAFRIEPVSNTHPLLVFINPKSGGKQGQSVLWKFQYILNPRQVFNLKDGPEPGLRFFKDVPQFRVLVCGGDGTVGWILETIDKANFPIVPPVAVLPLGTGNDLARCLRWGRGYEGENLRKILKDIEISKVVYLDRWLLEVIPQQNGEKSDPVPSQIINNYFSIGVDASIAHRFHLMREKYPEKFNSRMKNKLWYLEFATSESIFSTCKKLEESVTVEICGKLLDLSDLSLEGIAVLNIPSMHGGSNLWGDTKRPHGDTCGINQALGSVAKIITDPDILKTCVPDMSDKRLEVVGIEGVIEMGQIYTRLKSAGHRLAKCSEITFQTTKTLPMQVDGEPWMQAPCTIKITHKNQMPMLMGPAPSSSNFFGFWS

T1 sequence (P53350 whole entry): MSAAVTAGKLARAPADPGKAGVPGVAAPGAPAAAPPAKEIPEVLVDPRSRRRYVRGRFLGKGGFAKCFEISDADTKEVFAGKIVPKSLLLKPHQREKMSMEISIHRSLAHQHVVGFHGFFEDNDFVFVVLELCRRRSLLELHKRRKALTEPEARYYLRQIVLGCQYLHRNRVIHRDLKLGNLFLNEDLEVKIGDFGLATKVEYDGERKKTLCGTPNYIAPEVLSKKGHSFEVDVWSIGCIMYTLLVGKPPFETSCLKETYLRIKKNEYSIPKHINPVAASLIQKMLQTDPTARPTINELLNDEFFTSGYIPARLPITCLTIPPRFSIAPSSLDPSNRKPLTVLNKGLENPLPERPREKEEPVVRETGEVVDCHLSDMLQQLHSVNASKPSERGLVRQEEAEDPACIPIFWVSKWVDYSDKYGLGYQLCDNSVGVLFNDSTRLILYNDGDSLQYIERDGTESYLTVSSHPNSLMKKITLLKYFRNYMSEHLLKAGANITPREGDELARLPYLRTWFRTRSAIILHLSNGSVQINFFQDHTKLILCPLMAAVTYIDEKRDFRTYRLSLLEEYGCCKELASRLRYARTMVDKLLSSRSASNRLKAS

Consider `Cc1nc2sccn2c(=O)c1CCN1CCC(=C(c2ccc(F)cc2)c2ccc(F)cc2)CC1` [Ritanserin], for which, in test [1], the “SILAC ratio, PLK1 probe-modified peptide” value turned out to be 1.5. For the same compound, the activity at 100 µM in test [2] amounted to 52%.

For `Fc1ccc(C(=C2CCNCC2)c2ccc(F)cc2)cc1` [RF001, 4-(Bis(4-fluorophenyl)methylene) piperidine], in test [1], the “SILAC ratio, PLK1 probe-modified peptide” value amounted to 0.9. Moreover, in test [2], the activity at 100 µM is 75%. In addition, in test [2] (read-out: 1 mM % Activity (section without isoform head; Alpha)), the activity at 1000 µM turned out to be 0%.

On to `O=C(c1ccc(F)cc1)C1CCN(CCn2c(=O)[nH]c3ccccc3c2=O)CC1` [Ketanserin], for which the “SILAC ratio, PLK1 probe-modified peptide” value in test [1] came out at 1.0. In addition, the activity at 100 µM in test [2] was 99%.
